Results on 16 compounds are retold here after patent US20250230165A1, “HETEROCYCLIC COMPOUNDS FOR USE IN THE TREATMENT OF CANCER” (ARTIOS PHARMA LIMITED, priority 2021, published 2025).

Structures are written as SMILES.

For this experiment, the target named is T1, Human Polθ polymerase domain (aa1820-2590) (Homo sapiens, UniProt O75417).
T1 construct: Human Polθ polymerase domain (aa1820-2590) was expressed in E. coli; made in house; host or cells: E. coli
T1 sequence (O75417 1820-2590): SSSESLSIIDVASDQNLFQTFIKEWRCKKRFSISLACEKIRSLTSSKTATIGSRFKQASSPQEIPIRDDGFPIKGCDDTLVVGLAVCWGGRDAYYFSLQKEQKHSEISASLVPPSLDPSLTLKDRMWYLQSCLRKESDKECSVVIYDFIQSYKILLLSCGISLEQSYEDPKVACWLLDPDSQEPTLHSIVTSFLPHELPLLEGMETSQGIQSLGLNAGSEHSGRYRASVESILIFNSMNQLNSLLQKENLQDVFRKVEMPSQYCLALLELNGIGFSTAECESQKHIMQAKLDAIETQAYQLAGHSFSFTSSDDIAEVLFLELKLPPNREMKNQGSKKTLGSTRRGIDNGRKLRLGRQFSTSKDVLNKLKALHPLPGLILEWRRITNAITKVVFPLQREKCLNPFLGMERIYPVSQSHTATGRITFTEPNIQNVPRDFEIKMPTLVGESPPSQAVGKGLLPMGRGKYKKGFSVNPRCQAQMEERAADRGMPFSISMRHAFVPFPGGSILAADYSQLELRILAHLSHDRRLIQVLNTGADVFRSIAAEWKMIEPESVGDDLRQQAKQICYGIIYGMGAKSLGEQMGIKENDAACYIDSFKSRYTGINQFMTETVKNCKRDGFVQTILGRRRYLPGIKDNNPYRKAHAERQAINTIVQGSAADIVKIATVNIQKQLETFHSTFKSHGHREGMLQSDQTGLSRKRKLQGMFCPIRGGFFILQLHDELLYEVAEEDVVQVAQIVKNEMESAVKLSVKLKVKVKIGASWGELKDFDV
The experiment can be described thus: Polθ Polymerase Domain Kinact/KI Assay (PicoGreen). The format is biochemical. Particulars: 0.8 nM Polθ, 100 nM DNA substrate, kobs vs [I] fit for 2-step covalent inhibitor. Summed up: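 Time-dependent inhibition was followed with 0.8 nM polymerase domain, 100 nM DNA substrate and […], reactions quenched over 60 min and quantified by PicoGreen. Kinact and KI came from a secondary plot of kobs against inhibitor concentration.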
`Cc1cc(C(F)(F)F)cc(N2C(=O)C[C@@H]3CN(Cc4ccc(NC(=O)C5=CCCN(C)C5)cc4)c4c(C)cccc4N(C)C(=O)[C@H]32)n1` [Example 211, N-(4-(((3aR, 11aS)-6,10-dimethyl-1-(6-methyl-4-(trifluoromethyl)pyridin-2-yl)-2,11-dioxo-1,2,3,3a,4,10,11,11a-octahydro-5H-benzo[b]pyrrolo [2,3-f][1,4]diazocin-5-yl)methyl)phenyl)-1-methyl-1,2,5,6-tetrahydropyridine-3-carboxamide] showed a Kinact/Kl of 1.57e+06 M⁻¹ s⁻¹.
In turn, `C=CC(=O)N1CC(N2CCC(CN3C[C@H]4CC(=O)N(c5cc(C(F)(F)F)cc(C)n5)[C@@H]4C(=O)N(C)c4cccc(F)c43)CC2)C1` [Example 212, (3aR,11aS)-5-((1-(1-acryloylazetidin-3-yl)piperidin-4-yl)methyl)-6-fluoro-10-methyl-1-(6-methyl-4-(trifluoromethyl)pyridin-2-yl)-1,3a,4,5,10,11a-hexahydro-2H-benzo[b]pyrrolo [2,3-f][1,4] diazocine-2,11 (3H)-dione] showed a Kinact/Kl of 1.81e+06 M⁻¹ s⁻¹.
Next, `C=CC(=O)N1CC(N2CC[C@H](CN3C[C@H]4CC(=O)N(c5cc(C(F)(F)F)cc(C)n5)[C@@H]4C(=O)N(C)c4cccc(F)c43)C2)C1` [Example 213, (3aR,11aS)-5-(((S)-1-(1-acryloylazetidin-3-yl)pyrrolidin-3-yl)methyl)-6-fluoro-10-methyl-1-(6-methyl-4-(trifluoromethyl)pyridin-2-yl)-1,3a,4,5,10,11a-hexahydro-2H-benzo[b]pyrrolo [2,3-f][1,4] diazocine-2,11(3H)-dione]: 1.08e+06 M⁻¹ s⁻¹; `C=CC(=O)N1CC(N2CC[C@@H](CN3C[C@H]4CC(=O)N(c5cc(C(F)(F)F)cc(C)n5)[C@@H]4C(=O)N(C)c4cccc(F)c43)C2)C1` [Example 214, (3aR,11aS)-5-(((R)-1-(1-acryloylazetidin-3-yl)pyrrolidin-3-yl)methyl)-6-fluoro-10-methyl-1-(6-methyl-4-(trifluoromethyl)pyridin-2-yl)-1,3a,4,5,10,11a-hexahydro-2H-benzo[b]pyrrolo [2,3-f][1,4] diazocine-2,11 (3H)-dione]: 320000 M⁻¹ s⁻¹.
Next, `C=CC(=O)N1CC(N2CCC(CCN3C[C@H]4CC(=O)N(c5cc(C(F)(F)F)cc(C)n5)[C@@H]4C(=O)N(C)c4cccc(F)c43)CC2)C1` [Example 215, (3aR,11aS)-5-(2-(1-(1-acryloylazetidin-3-yl)piperidin-4-yl)ethyl)-6-fluoro-10-methyl-1-(6-methyl-4-(trifluoromethyl)pyridin-2-yl)-1,3a,4,5,10,11a-hexahydro-2H-benzo[b]pyrrolo [2,3-f][1,4] diazocine-2,11 (3H)-dione]: 1.21e+06 M⁻¹ s⁻¹.
On to `C=CC(=O)N1CC(N2CCC(N3C[C@H]4CC(=O)N(c5cc(C(F)(F)F)cc(C)n5)[C@@H]4C(=O)N(C)c4cccc(F)c43)CC2)C1` [Example 216, (3aR,11aS)-5-(1-(1-acryloylazetidin-3-yl)piperidin-4-yl)-6-fluoro-10-methyl-1-(6-methyl-4-(trifluoromethyl)pyridin-2-yl)-1,3a,4,5,10,11a-hexahydro-2H-benzo[b]pyrrolo [2,3-f][1,4] diazocine-2,11(3H)-dione], for which the Kinact/Kl was found to be 430000 M⁻¹ s⁻¹.
Next, `C=CC(=O)N1CC(N2CCC(F)(CN3C[C@H]4CC(=O)N(c5cc(C(F)(F)F)cc(C)n5)[C@@H]4C(=O)N(C)c4cccc(Cl)c43)CC2)C1` [Example 217, (3aR,11aS)-5-((1-(1-acryloylazetidin-3-yl)-4-fluoropiperidin-4-yl)methyl)-6-chloro-10-methyl-1-(6-methyl-4-(trifluoromethyl)pyridin-2-yl)-1,3a,4,5,10,11a-hexahydro-2H-benzo[b] pyrrolo[2,3-f] [1,4]diazocine-2,11(3H)-dione]: 1.59e+06 M⁻¹ s⁻¹; `C=CC(=O)N1CC(N2CC[C@H](CN3C[C@H]4CC(=O)N(c5cc(C(F)(F)F)cc(C)n5)[C@@H]4C(=O)N(C)c4cccc(Cl)c43)C2)C1` [Example 218, (3aR,11aS)-5-(((S)-1-(1-acryloylazetidin-3-yl)pyrrolidin-3-yl)methyl)-6-chloro-10-methyl-1-(6-methyl-4-(trifluoromethyl)pyridin-2-yl)-1,3a,4,5,10,11a-hexahydro-2H-benzo[b]pyrrolo [2,3-f][1,4] diazocine-2,11 (3H)-dione]: 1.62e+06 M⁻¹ s⁻¹; `C=CC(=O)N1CC(N2CC[C@@H](CN3C[C@H]4CC(=O)N(c5cc(C(F)(F)F)cc(C)n5)[C@@H]4C(=O)N(C)c4cccc(Cl)c43)C2)C1` [Example 219, (3aR,11aS)-5-(((R)-1-(1-acryloylazetidin-3-yl)pyrrolidin-3-yl)methyl)-6-chloro-10-methyl-1-(6-methyl-4-(trifluoromethyl)pyridin-2-yl)-1,3a,4,5,10,11a-hexahydro-2H-benzo[b]pyrrolo [2,3-f][1,4] diazocine-2,11(3H)-dione]: 560000 M⁻¹ s⁻¹.
To `C=CC(=O)N1CC(N2CC[C@@H](CCN3C[C@H]4CC(=O)N(c5cc(C(F)(F)F)cc(C)n5)[C@@H]4C(=O)N(C)c4cccc(Cl)c43)C2)C1` [Example 220, (3aR,11aS)-5-(2-((S)-1-(1-acryloylazetidin-3-yl)pyrrolidin-3-yl)ethyl)-6-chloro-10-methyl-1-(6-methyl-4-(trifluoromethyl)pyridin-2-yl)-1,3a,4,5,10,11a-hexahydro-2H-benzo[b]pyrrolo [2,3-f][1,4] diazocine-2,11(3H)-dione] belongs 3.66e+06 M⁻¹ s⁻¹; to `C=CC(=O)N1CC(N2CC[C@H](CCN3C[C@H]4CC(=O)N(c5cc(C(F)(F)F)cc(C)n5)[C@@H]4C(=O)N(C)c4cccc(Cl)c43)C2)C1` [Example 221, (3aR,11aS)-5-(2-((R)-1-(1-acryloylazetidin-3-yl)pyrrolidin-3-yl)ethyl)-6-chloro-10-methyl-1-(6-methyl-4-(trifluoromethyl)pyridin-2-yl)-1,3a,4,5,10,11a-hexahydro-2H-benzo[b] pyrrolo[2,3-f] [1,4]diazocine-2,11(3H)-dione], 3.03e+06 M⁻¹ s⁻¹.
Next, `C=CC(=O)N1CCC(N2CCC(CN3C[C@H]4CC(=O)N(c5cc(C(F)(F)F)cc(C)n5)[C@@H]4C(=O)N(C)c4cccc(Cl)c43)CC2)C1` (stereo partly drawn) [Example 222, (3aR,11aS)-5-((1-(1-acryloylpyrrolidin-3-yl)piperidin-4-yl)methyl)-6-chloro-10-methyl-1-(6-methyl-4-(trifluoromethyl)pyridin-2-yl)-1,3a,4,5,10,11a-hexahydro-2H-benzo[b]pyrrolo [2,3-f][1,4] diazocine-2,11(3H)-dione]: 2.04e+06 M⁻¹ s⁻¹.
Turning to `C=CC(=O)N1CC(N2CC[C@H](CN3C[C@H]4CC(=O)N(c5cc(C(F)(F)F)cc(C)n5)[C@@H]4C(=O)N(C)c4cccc(C)c43)C2)C1` [Example 223, (3aR,11aS)-5-(((S)-1-(1-acryloylazetidin-3-yl)pyrrolidin-3-yl)methyl)-6,10-dimethyl-1-(6-methyl-4-(trifluoromethyl)pyridin-2-yl)-1,3a,4,5,10,11a-hexahydro-2H-benzo[b]pyrrolo [2,3-f][1,4] diazocine-2,11(3H)-dione], the Kinact/Kl is 1.62e+06 M⁻¹ s⁻¹.
In the case of `C=CC(=O)N1CC(N2CC[C@@H](CN3C[C@H]4CC(=O)N(c5cc(C(F)(F)F)cc(C)n5)[C@@H]4C(=O)N(C)c4cccc(C)c43)C2)C1` [Example 224, (3aR,11aS)-5-(((R)-1-(1-acryloylazetidin-3-yl)pyrrolidin-3-yl)methyl)-6,10-dimethyl-1-(6-methyl-4-(trifluoromethyl)pyridin-2-yl)-1,3a,4,5,10,11a-hexahydro-2H-benzo[b]pyrrolo [2,3-f][1,4] diazocine-2,11(3H)-dione], the Kinact/Kl turned out to be 4.21e+06 M⁻¹ s⁻¹.
`C=CC(=O)N1Cc2ncc(CN3C[C@H]4CC(=O)N(c5cc(C(F)(F)F)cc(C)n5)[C@@H]4C(=O)N(C)c4cccc(C)c43)nc2C1` [Example 228, (3aR,11aS)-5-((6-acryloyl-6,7-dihydro-5H-pyrrolo[3,4-b]pyrazin-2-yl)methyl)-6,10-dimethyl-1-(6-methyl-4-(trifluoromethyl)pyridin-2-yl)-1,3a,4,5,10,11a-hexahydro-2H-benzo[b]pyrrolo[2,3-f][1,4]diazocine-2,11(3H)-dione] showed a Kinact/Kl of 2.26e+06 M⁻¹ s⁻¹.
To `C=CC(=O)N1Cc2ncc(CN3C[C@H]4CC(=O)N(c5cc(C(F)(F)F)cc(C)n5)[C@@H]4C(=O)N(C)c4cccc(Cl)c43)nc2C1` [Example 229, (3aR,11aS)-5-((6-acryloyl-6,7-dihydro-5H-pyrrolo[3,4-b]pyrazin-2-yl)methyl)-6-chloro-10-methyl-1-(6-methyl-4-(trifluoromethyl)pyridin-2-yl)-1,3a,4,5,10,11a-hexahydro-2H-benzo[b]pyrrolo[2,3-f][1,4]diazocine-2,11(3H)-dione] belongs 730000 M⁻¹ s⁻¹.
